ChEMBL document CHEMBL2150849, “Sesquiterpenoids from the mangrove-derived endophytic fungus Diaporthe sp” (J Nat Prod, 2012)
Active and inactive are the calls of the source.

What was measured:
Assay type in all cases: functional, cell-based
SGC-7901 = experiment: Cytotoxicity against human SGC7901 cells at 20 uM by MTT assay
MCF7 = experiment: Cytotoxicity against human MCF7 cells at 20 uM by MTT assay
A549 = experiment: Cytotoxicity against human A549 cells at 20 uM by MTT assay
QGY7701 = experiment: Cytotoxicity against human QGY7701 cells at 20 uM by MTT assay

Measured: Activity

CC1=C(CO)[C@@]2(C)C[C@@H](O)CC(C)(C)[C@@H]2CC1=O
inactive: SGC-7901 | MCF7 | A549 | QGY7701

C[C@]1(CO)CCC[C@]2(C)[C@@H](CO)[C@](C)(O)CC[C@@H]12
inactive: SGC-7901 | MCF7 | A549 | QGY7701

CC1=C(CO)[C@@]2(C)CCCC(C)(C)[C@@H]2C[C@H]1O
inactive: SGC-7901 | MCF7 | A549 | QGY7701

CC1(C)CC(=O)C[C@]2(C)[C@@H](CO)[C@](C)(O)CC[C@@H]12
inactive: SGC-7901 | MCF7 | A549 | QGY7701

CC1=C[C@@H]2C[C@H](C)C[C@H](C)[C@H]2[C@](C)(C(=O)CCO)[C@@H]1C(=O)O
inactive: SGC-7901 | MCF7 | A549 | QGY7701

CC1(C)CCC[C@]2(C)[C@@H](C(=O)O)[C@](C)(O)CC[C@@H]12
inactive: SGC-7901 | MCF7 | A549 | QGY7701

CC1(C)[C@@H](O)CC[C@]2(C)C3=C(CC[C@@H]12)C(=O)OC3
inactive: SGC-7901 | MCF7 | A549 | QGY7701

CC1(C)C(=O)CC[C@]2(C)[C@@H](CO)[C@](C)(O)CC[C@@]12O
inactive: SGC-7901 | MCF7 | A549 | QGY7701

CC1=C(CO)[C@@]2(C)CC[C@H](O)C(C)(C)[C@@H]2CC1=O
inactive: SGC-7901 | MCF7 | A549 | QGY7701

CC1=C(CO)[C@@]2(C)CCC[C@@](C)(CO)[C@@H]2CC1=O
inactive: SGC-7901 | MCF7 | A549 | QGY7701

CC(C)(O)[C@]12CCC3=C(COC3=O)[C@@]1(C)CCC(=O)O2
inactive: SGC-7901 | MCF7 | A549 | QGY7701
